# Values of other authors as cited in patent US6087376A (priority 1998, dated 2000).
# Entries after “also recorded” stand apart in the source; their conditions may differ.
# How the values were obtained:
# [1] = test system: conditioned place preference in rats; details: rat, in vivo; cited from earlier work
# [2] = test system: rat striatal synaptosomes; details: cited from earlier work
compound,measurement,setting,value
"CN1[C@@H](CC(=O)c2ccccc2)CCC[C@H]1C[C@H](O)c1ccccc1 [Lobeline, 2-[G-(β-hydroxyphenethyl)-1-methyl-2-piperidyl]-acetophenone]",conditioned place preference,[1],"does not produce conditioned place preference; also recorded: does not increase locomotor activity (Stolerman et al., 1995) or produce conditioned place preference"
same,DA release from superfused striatal synaptosomes,[2],increase DA release
